How the values were obtained:
[1] = cited from earlier work
CYP2C8 = target: T1, CYP2C8 (Homo sapiens, UniProt P10632); conditions: statement of the European approved drug label; cited from earlier work
T1 sequence (P10632 1-490): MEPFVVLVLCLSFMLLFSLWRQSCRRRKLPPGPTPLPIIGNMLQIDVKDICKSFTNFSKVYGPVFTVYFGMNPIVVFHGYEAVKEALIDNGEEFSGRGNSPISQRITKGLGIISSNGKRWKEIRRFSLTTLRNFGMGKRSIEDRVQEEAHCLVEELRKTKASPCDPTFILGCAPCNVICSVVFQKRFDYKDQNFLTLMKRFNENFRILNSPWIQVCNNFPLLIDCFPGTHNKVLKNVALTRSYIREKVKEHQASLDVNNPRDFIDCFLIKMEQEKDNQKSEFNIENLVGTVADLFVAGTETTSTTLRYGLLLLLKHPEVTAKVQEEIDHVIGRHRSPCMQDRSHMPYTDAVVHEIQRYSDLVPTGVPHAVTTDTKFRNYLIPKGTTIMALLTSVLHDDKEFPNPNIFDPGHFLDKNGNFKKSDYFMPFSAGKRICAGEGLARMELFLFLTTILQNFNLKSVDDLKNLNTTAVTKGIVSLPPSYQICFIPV

clinical = conditions: human, in vivo
Description: This was a Phase 1, open-label, one-sequence crossover, drug-interaction study to evaluate and compare the PK of repaglinide when administered alone and concomitantly with OPC (micronized). Subjects received a single dose of repaglinide 0.5 mg on Days 1 and 15 at approximately 0800 hours. In addition, subjects received OPC 50 mg once daily on Days 2 through 15 at approximately 0800 hours.
Subjects were required to fast overnight from midnight (2400 hours) until 2 hours postdose on Days 1 through 15. Blood samples for pharmacokinetic analysis of OPC and its metabolites and for repaglinide were collected at scheduled times during the study. Safety and tolerability assessments were conducted at scheduled times during the study.
Blood samples to determine repaglinide plasma concentrations were collected on Days 1 and 15 at approximately 30 minutes prior to repaglinide dosing and at 0.25, 0.5, 0.75, 1, 1.5, 2, 3, 4, 5, 6, 8, 10, 12, and 24 hours post-repaglinide dosing.
PK parameters for OPC and its metabolites and repaglinide were calculated using non-compartmental methods.
A statistical assessment of the drug-drug interaction between repaglinide and opicapone is provided below. A repeated measures linear mixed model with fixed effect for treatment and random effect for subject was utilized. An unstructured variance-covariance matrix was assumed for the mixed model analysis. Geometric means (GM), ratios of geometric means (GMR), and their confidence intervals (CI) are shown on the original scale of measurement. Within-Subject CV was calculated as 100*sqrt[(sA2+sC2−2sAC)/2], where sA2 and sC2 are the estimated variances on the log scale for the two treatments, and sAC is the corresponding estimated covariance.

[2] = non-micronized opicapone 25 mg single dose, repaglinide 0.5 mg

SMILES | increase in repaglinide AUC0-tlast when taken with opicapone vs. repaglinide alone [1, 2] [%] | increase in repaglinide Cmax when taken with opicapone vs. repaglinide alone [1, 2] [%] | average increase in the rate of exposure to repaglinide when co-administered with opicapone ([1]; opicapone 25 mg, less than optimal formulation, rate but not extent of exposure increased) [%] | inhibition of CYP2C8 (CYP2C8) | Tmax (clinical) [min] | half-life (clinical) [min] | AUC(0-inf) (clinical; AUC0-inf, GM) [ng·h/mL] | AUC(0-t) (clinical; AUC0-t, GM) [ng·h/mL] | Cmax (clinical; Cmax, GM) [ng/mL]
Cc1c(Cl)c(C)[n+]([O-])c(Cl)c1-c1noc(-c2cc(O)c(O)c([N+](=O)[O-])c2)n1 [opicapone, 5-[3-(2,5-dichloro-4,6-dimethyl-1-oxy-pyridin-3-yl)-[1,2,4]oxadiazol-5-yl]-3-nitrobenzene-1,2-diol] | 9 | 31 | 30 | weak inhibitor | – | – | – | – | –
CCOc1cc(CC(=O)N[C@@H](CC(C)C)c2ccccc2N2CCCCC2)ccc1C(=O)O [Repaglinide, repaglinide] | – | – | – | – | 30 | 38.4 | 11.6 | 10.9 | 10.1

From US20210220345A1, “METHODS FOR THE ADMINISTRATION OF COMT INHIBITORS” (Neurocrine Biosciences, Inc., priority 2018, published 2021)
